Row | Compound | melting point
1 | CCCCCCCCCCCCNC(=O)c1cc(Br)c(OCCNC(=O)OC)c(-c2cccc(C(F)(F)F)c2)c1 [Example 188, [2-(3-Bromo-5-dodecylcarbamoyl-3′-trifluoromethyl-biphenyl-2-yloxy)-ethyl]-carbamic acid methyl ester] | 79.6 to 80.5 °C
2 | COc1ccc(-c2cc(C(=O)NCCCCCCc3ccccc3)cc(-c3cccc(C(F)(F)F)c3)c2OCC(=O)O)cc1 [Example 157, [4″-Methoxy-5′-(6-phenyl-hexylcarbamoyl)-3-trifluoromethyl-[1,1′;3′,1″]terphenyl-2′-yloxy]acetic acid] | 153 to 159 °C
3 | COc1ccc(-c2cc(C(=O)NCCCc3ccccc3)cc(-c3ccccc3F)c2OCC(=O)O)cc1 [Example 71, [2-Fluoro-4″-methoxy-5′-(3-phenyl-propylcarbamoyl)-[1,1′;3′,1″]-terphenyl-2′-yloxy]acetic acid] | > 89 °C (dec.)
4 | O=C(O)COc1c(-c2ccccc2)cc(Br)cc1-c1ccccc1 [Example 40, (5′-Bromo-[1,1′;3′,1″]terphenyl-2′-yloxy)-acetic acid] | > 50 °C (dec.)
5 | CCCCCCCCCCCCNC(=O)c1cc(Br)c(OCC(=O)O)c(-c2cccc(Cl)c2)c1 [Example 34, (3-Bromo-3′-chloro-5-dodecylcarbamoyl-biphenyl-2-yloxy)-acetic acid] | > 100 °C (dec.)
6 | O=C(O)COc1c(-c2cccc(Cl)c2)cc(C(=O)N(CCc2ccccc2)Cc2ccccc2)cc1-c1cccc(Cl)c1 [Example 53, [5′-(Benzyl-phenethyl-carbamoyl)-3,3″-Dichloro-[1,1′;3′,1″]terphenyl-2′-yloxy]acetic acid] | > 67 °C (dec.)
7 | O=C(O)COc1c(Br)cc(C(=O)N(CCc2ccccc2)Cc2ccccc2)cc1-c1cccc(Cl)c1 [Example 55, [5-(Benzyl-phenethyl-carbamoyl)-3-bromo-3′-chloro-biphenyl-2-yloxy]acetic acid] | > 72 °C (dec.)
8 | CCCCCCCCCCCCNC(=O)c1cc(Br)c(OCCn2ncnn2)c(-c2cccc(C(F)(F)F)c2)c1 [Example 182, 5-Bromo-6-(2-tetrazol-2-yl-ethoxy)-3′-trifluoromethyl-biphenyl-3-carboxylic acid dodecylamide] | 75.6 to 76.2 °C
9 | O=C(O)COc1c(-c2cccc(Cl)c2)cc(C(=O)NCCc2ccccn2)cc1-c1cccc(Cl)c1 [Example 52, [3,3″-Dichloro-5′-(2-pyridin-2-yl-ethylcarbamoyl)-[1,1′;3′,1″]terphenyl-2′-yloxy]acetic acid] | > 94 °C (dec.)
10 | CCCCCCCCCCCCNC(=O)c1cc(-c2cccc(Cl)c2)c(OCC(=O)O)c(-c2cccc(Cl)c2)c1 [Example 33, (3,3″-Dichloro-5′-dodecylcarbamoyl-[1,1′;3′,1″]terphenyl-2′-yloxy)-acetic acid] | 151 to 156 °C
11 | COc1ccc(-c2cc(C(=O)NCCCC3CCCC3)cc(-c3cccc(C(F)(F)F)c3)c2OCC(=O)O)cc1 [Example 66, [5′-(3-Cyclopentyl-propylcarbamoyl)-4″-methoxy-3-trifluoromethyl-[1,1′;3′,1″]-terphenyl-2′-yloxy]acetic acid] | > 114 °C (dec.)
12 | CCOP(=O)(COc1c(-c2cccc(C(F)(F)F)c2)cc(C(=O)NCCCCCCCc2ccccc2)cc1-c1cccc(C(F)(F)F)c1)OCC (hydrate or solvate) | 84 to 85 °C
13 | O=C(O)COc1c(-c2ccccc2)cc2oc3ccccc3c2c1-c1ccccc1 [Example 42, (1,3-Diphenyl-dibenzofuran-2-yloxy)-acetic acid] | > 120 °C (dec.)
14 | O=C(O)COc1c(Br)cc(C(=O)NCCc2ccccn2)cc1-c1ccccc1F [Example 72, [3-Bromo-2′-fluoro-5-(2-pyridin-2-yl-ethylcarbamoyl)-biphenyl-2-yloxy]acetic acid] | > 154 °C (dec.)
15 | COc1ccc(-c2cc(-c3ccc(C(=O)NCCCCCCCc4ccccc4)cc3)cc(-c3ccc(OC)cc3)c2OCc2ccc(C(=O)O)cc2)cc1 (hydrate or solvate) [Example 133] | 140 to 142 °C

Source: US7008636B2, “2,3,5-substituted biphenyls useful in the treatment of insulin resistance and hyperglycemia” (Wyeth, priority 1998, dated 2006)
